Where only a bound is given, the exact number is not on record here.

This note sets out measurements from patent US20250276989A1, “GPR40 AGONISTS” (Kallyope, Inc., priority 2020, published 2025).

For the first data set, the target named is T1, human GPR40 (Homo sapiens, UniProt O14842).
T1 construct: host or cells: CHO-K1
T1 sequence (O14842 whole entry): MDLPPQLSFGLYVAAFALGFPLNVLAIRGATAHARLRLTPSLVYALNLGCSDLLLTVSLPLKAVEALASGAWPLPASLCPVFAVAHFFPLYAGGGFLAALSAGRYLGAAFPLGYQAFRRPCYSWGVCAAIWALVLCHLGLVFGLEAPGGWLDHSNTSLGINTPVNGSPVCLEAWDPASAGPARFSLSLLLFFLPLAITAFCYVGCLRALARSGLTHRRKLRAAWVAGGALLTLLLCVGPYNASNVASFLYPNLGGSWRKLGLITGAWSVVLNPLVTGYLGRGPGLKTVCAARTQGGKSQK
Put plainly: Inositol phosphate accumulation assay (IP1 HTRF) in CHO-K1 cells expressing human GPR40. The format is cell-based. To be noted: 90 min stimulation. The procedure:
CHO-K1 cells expressing human GPR40 were purchased from DiscoverX (95-1005C2). HEK293 cells expressing mouse FFAR1 were prepared using a mouse FFAR1 carrying plasmid purchased from OriGene Technologies (MR222997). The cells were transfected using Lipofectamine 2000 using manufacturer instructions and stable cell line was established from a single cell using geneticine selection. Assay ready frozen (ARF) cells were prepared and used throughout the study.
The assay was performed in a 384-well plate format using IP1 assay kit from Cis-Bio. ARF cells expressing FFAR1 (mouse and human) were thawed, washed and then plated in the appropriate medium (F12 based medium for CHO hFFAR1 and DMEM based medium for HEK293 mFFAR1—both were supplemented with 10% FBS and penicillin/streptomycin). 20 μL of 3.5×10^5 cells/mL were plated on a Poly D-Lysine coated 384-well white plate. The cells were then incubated for 16 hr at 37° C./5% CO2. After 16 hr the medium was removed and 15 μL of stimulation buffer containing the test compounds was added to the cells. The plates were then incubated for 90 min at 37° C./5% CO2. 5 μL of detection buffer (prepared as described in the IP-one kit) was added to each well and the plates were incubated at RT for 1 hr.
[…] was measured using ClarioSTAR plate reader, calculating the ratio between emissions at 665 nm and 620 nm (HTRF ratio). HTRF ratio for positive (Max) and negative (Min) controls were used to normalize HTRF data and generate values for % activity. EC50 and Max activity values were determined using a standard 4-parameter fit.
On the technique in general: In TR-FRET formats the signal depends on donor and acceptor labels being close together.
As to `COc1ccc(F)c([C@H]2CC[C@H](COc3cccc(C(CP(C)(=O)O)C4CC4)c3)CC2)c1` (single isomer, unassigned) [Compound 5, (2-cyclopropyl-2-(3-(((trans)-4-(2-fluoro-5-methoxyphenyl)cyclohexyl)methoxy)phenyl)ethyl)(methyl)phosphinic acid], the EC50 was at most 50 nM.

`COc1ccc(F)c([C@H]2CC[C@H](COc3cccc(C(CP(C)(=O)O)C4CC4)c3)CC2)c1` (single isomer, unassigned) [Compound 6, (2-cyclopropyl-2-(3-(((trans)-4-(2-fluoro-5-methoxyphenyl)cyclohexyl)methoxy)phenyl)ethyl)(methyl)phosphinic acid] returned an EC50 of 50 to 250 nM.

`COc1ccc(F)c([C@H]2CC[C@H](COc3cccc(C(CP(C)(=O)O)C4CC4)c3)CC2)c1` (single isomer, unassigned) [Compound 7, (2-cyclopropyl-2-(3-(((trans)-4-(2-fluoro-5-methoxyphenyl)cyclohexyl)methoxy)phenyl)ethyl)(methyl)phosphinic acid] gave an EC50 of at most 50 nM.

For the compound `COc1ccc(F)c([C@H]2CC[C@H](COc3cccc(C(CP(C)(=O)O)C4CC4)c3)CC2)c1` (single isomer, unassigned) [Compound 8, (2-cyclopropyl-2-(3-(((trans)-4-(2-fluoro-5-methoxyphenyl)cyclohexyl)methoxy)phenyl)ethyl)(methyl)phosphinic acid], the EC50 fell in the range of 50 to 250 nM.

Compound `COc1ccc(F)c([C@H]2CC[C@H](COc3cccc(C(CP(=O)(O)OC)C4CC4)c3)CC2)c1` (stereo partly drawn) [Compound 1, methyl hydrogen (2-cyclopropyl-2-(3-(((trans)-4-(2-fluoro-5-methoxyphenyl)cyclohexyl)methoxy)phenyl)ethyl)phosphonate] gave an EC50 of 250 to 1000 nM.

Compound `COc1ccc(F)c([C@H]2CC[C@H](COc3cccc(C(CP(=O)(O)O)C4CC4)c3)CC2)c1` (stereo partly drawn) [Compound 2, (2-cyclopropyl-2-(3-(((trans)-4-(2-fluoro-5-methoxyphenyl)cyclohexyl)methoxy)phenyl)ethyl)phosphonic acid] had a concentration giving a half-maximal response (EC50) above 1000 nM.

`COc1ccc(F)c([C@H]2CC[C@H](COc3cccc(C(CS(=O)(=O)O)C4CC4)c3)CC2)c1` (stereo partly drawn) [Compound 3, 2-cyclopropyl-2-(3-(((trans)-4-(2-fluoro-5-methoxyphenyl)cyclohexyl)methoxy)phenyl)ethanesulfonic acid] returned an EC50 above 1000 nM.

The compound `COc1ccc(F)c([C@H]2CC[C@H](COc3cccc(C(C4CC4)C(C)P(=O)(O)O)c3)CC2)c1` (stereo partly drawn) [Compound 4, (1-cyclopropyl-1-(3-(((trans)-4-(2-fluoro-5-methoxyphenyl)cyclohexyl)methoxy)phenyl)propan-2-yl)phosphonic acid] returned an EC50 above 1000 nM.

Compound `COc1ccc(F)c([C@H]2CC[C@H](COc3cc([C@@H](CP(C)(=O)O)C4CC4)ccn3)CC2)c1` [Compound 9, ((S)-2-cyclopropyl-2-(2-(((trans)-4-(2-fluoro-5-methoxyphenyl)cyclohexyl)methoxy)pyridin-4-yl)ethyl)(methyl)phosphinic acid] had an EC50 of at most 50 nM.

Turning to `COc1ccc(CCCC(C)(C)C)c(N2CCC(COc3cccc([C@@H](CP(C)(=O)O)C4CC4)c3)CC2)c1` [Compound 10, ((S)-2-cyclopropyl-2-(3-((1-(2-(4,4-dimethylpentyl)-5-methoxyphenyl)piperidin-4-yl)methoxy)phenyl)ethyl)(methyl)phosphinic acid], the EC50 was at most 50 nM.

In turn, `COc1ccc(CCCC(C)(C)C)c(N2CCC(COc3cc([C@@H](CP(C)(=O)O)C4CC4)ccn3)CC2)c1` [Compound 11, ((S)-2-cyclopropyl-2-(2-((1-(2-(4,4-dimethylpentyl)-5-methoxyphenyl)piperidin-4-yl)methoxy)pyridin-4-yl)ethyl)(methyl)phosphinic acid] came in with an EC50 of at most 50 nM.

Regarding `COc1ccc(CCCC(C)(C)C)c(N2CCC(COc3cc([C@@H](C)CP(C)(=O)O)ccn3)CC2)c1` [Compound 12, ((R)-2-(2-((1-(2-(4,4-dimethylpentyl)-5-methoxyphenyl)piperidin-4-yl)methoxy)pyridin-4-yl)propyl)(methyl)phosphinic acid], the EC50 is at most 50 nM.

Regarding `COc1ccc(CCCC(C)(C)C)c(N2CCC(COc3cc([C@H](C)CP(C)(=O)O)ccn3)CC2)c1` [Compound 13, ((S)-2-(2-((1-(2-(4,4-dimethylpentyl)-5-methoxyphenyl)piperidin-4-yl)methoxy)pyridin-4-yl)propyl)(methyl)phosphinic acid], the EC50 was 250 to 1000 nM.

As for `COc1ccc(CCCC(C)(C)C)c(N2CCC(COc3cccc([C@@H](C)CP(C)(=O)O)c3)CC2)c1` [Compound 14, ((R)-2-(3-((1-(2-(4,4-dimethylpentyl)-5-methoxyphenyl)piperidin-4-yl)methoxy)phenyl)propyl)(methyl)phosphinic acid], the concentration giving a half-maximal response (EC50) was in the range of 50 to 250 nM.

Compound `COc1ccc(CCCC(C)(C)C)c(N2CCC(COc3cccc([C@H](C)CP(C)(=O)O)c3)CC2)c1` [Compound 15, ((S)-2-(3-((1-(2-(4,4-dimethylpentyl)-5-methoxyphenyl)piperidin-4-yl)methoxy)phenyl)propyl)(methyl)phosphinic acid] gave an EC50 of at most 50 nM.

For the compound `COc1ccc(CCCC(C)(C)C)c(N2CCC(COc3cccc(CC(C)P(=O)(O)O)c3)CC2)c1` (stereo not drawn) [Compound 16, (1-(3-((1-(2-(4,4-dimethylpentyl)-5-methoxyphenyl)piperidin-4-yl)methoxy)phenyl)propan-2-yl)phosphonic acid], the EC50 is above 1000 nM.

Compound `CC[C@H](Cc1cccc(OCC2CCN(c3cc(OC)ccc3CCCC(C)(C)C)CC2)c1)P(C)(=O)O` [Compound 17, ((R)-1-(3-((1-(2-(4,4-dimethylpentyl)-5-methoxyphenyl)piperidin-4-yl)methoxy)phenyl)butan-2-yl)(methyl)phosphinic acid] displayed a concentration for a half-maximal effect (EC50) of 250 to 1000 nM.

Take `CC[C@@H](Cc1cccc(OCC2CCN(c3cc(OC)ccc3CCCC(C)(C)C)CC2)c1)P(C)(=O)O` [Compound 18, ((S)-1-(3-((1-(2-(4,4-dimethylpentyl)-5-methoxyphenyl)piperidin-4-yl)methoxy)phenyl)butan-2-yl)(methyl)phosphinic acid]: the EC50 was in the range of 250 to 1000 nM.

In turn, `COc1ccc(CCCC(C)(C)C)c(N2CCC(COc3cccc([C@H](C)CP(=O)(O)O)c3)CC2)c1` [Compound 19, (S)-(2-(3-((1-(2-(4,4-dimethylpentyl)-5-methoxyphenyl)piperidin-4-yl)methoxy)phenyl)propyl)phosphonic acid] had an EC50 of 250 to 1000 nM.

In turn, `COc1ccc(CCCC(C)(C)C)c(N2CCC(COc3cccc([C@@H](C)CP(=O)(O)O)c3)CC2)c1` [Compound 20, (R)-(2-(3-((1-(2-(4,4-dimethylpentyl)-5-methoxyphenyl)piperidin-4-yl)methoxy)phenyl)propyl)phosphonic acid] came in with an EC50 above 1000 nM.

Tested on in a further data set: not listed separately
Nature of the data set: In vivo plasma levels in mice. Conditions: male C57BL/6J mice, 30 mg/kg oral gavage, 2 h post-dose; total exposure x free fraction from plasma protein binding. The procedure:
Male C57BL/6J mice 10-12 weeks old were dosed with test article (30 mg/kg) or vehicle by oral gavage. Animals were euthanized with carbon dioxide at 2 h or 5 h post dose. Blood was collected for measurement of plasma concentrations of test article. Unbound exposure was calculated by multiplying the measured total exposure by the free fraction as assessed from plasma protein binding.
Plasma protein binding to isotonic phosphate buffer (PBS) containing 10% C57 BL/6 mouse plasma was determined using equilibrium dialysis of plasma spiked with test article (2 μM) against a dialysis buffer (100 mM sodium phosphate and 150 mM NaCl). At the end of the dialysis (4 hr), aliquots of the plasma and buffer were processed by protein precipitation for LC-MS/MS analysis to quantitate the test article.
Results for exemplary compounds (total exposure in plasma and unbound exposure in plasma; ratio of EC50 to unbound exposure in plasma) are shown in Table 2.
For `COc1ccc(F)c([C@H]2CC[C@H](COc3cccc(C(CP(C)(=O)O)C4CC4)c3)CC2)c1` (single isomer, unassigned) [Compound 5, (2-cyclopropyl-2-(3-(((trans)-4-(2-fluoro-5-methoxyphenyl)cyclohexyl)methoxy)phenyl)ethyl)(methyl)phosphinic acid], the “Exposure (nM) (unbound), unbound exposure in plasma” value is given as 2.5 nM.

The data set is the same for the next values; noted with them: male C57BL/6J mice, 30 mg/kg oral gavage, 5 h post-dose; total exposure x free fraction from plasma protein binding.
Take `COc1ccc(F)c([C@H]2CC[C@H](COc3cc([C@@H](CP(C)(=O)O)C4CC4)ccn3)CC2)c1` [Compound 9, ((S)-2-cyclopropyl-2-(2-(((trans)-4-(2-fluoro-5-methoxyphenyl)cyclohexyl)methoxy)pyridin-4-yl)ethyl)(methyl)phosphinic acid]: the “Exposure (nM) (unbound), unbound exposure in plasma” value is on record as 2.3 nM.

Still in this data set, the particulars now being: mouse, plasma; male C57BL/6J mice, 30 mg/kg oral gavage, 2 h post-dose; read-out: Exposure (nM), total exposure in plasma.
Consider `COc1ccc(F)c([C@H]2CC[C@H](COc3cccc(C(CP(C)(=O)O)C4CC4)c3)CC2)c1` (single isomer, unassigned) [Compound 5, (2-cyclopropyl-2-(3-(((trans)-4-(2-fluoro-5-methoxyphenyl)cyclohexyl)methoxy)phenyl)ethyl)(methyl)phosphinic acid], for which the concentration at 2 h came to 8300 nM.

The same data set, now with this note: mouse, plasma; male C57BL/6J mice, 30 mg/kg oral gavage, 5 h post-dose; read-out: Exposure (nM), total exposure in plasma.
On to `COc1ccc(F)c([C@H]2CC[C@H](COc3cc([C@@H](CP(C)(=O)O)C4CC4)ccn3)CC2)c1` [Compound 9, ((S)-2-cyclopropyl-2-(2-(((trans)-4-(2-fluoro-5-methoxyphenyl)cyclohexyl)methoxy)pyridin-4-yl)ethyl)(methyl)phosphinic acid], for which the concentration at 5 h came to 1160 nM.

What is called EC50 is the concentration at which the effect is half-maximal. A lower EC50 goes with higher potency in that assay.
